According to article PMC6753678, “Fueling Open Innovation for Malaria Transmission-Blocking Drugs: Hundreds of Molecules Targeting Early Parasite Mosquito Stages” (Frontiers in Microbiology, 2019):
Like-named read-outs stand apart in the source and are kept apart here.

Tests used:
[1] = test system: 3D7-strain P. falciparum asexual parasites; test: P. falciparum asexual growth inhibition assay (Pf GIA); type: cell-based, Plasmodium falciparum; settings: dose response confirmation; read-out: Pf asexual growth inhibition assays IC50
In short: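 0.25% parasitemia, 2% Hct, RPMI/HEPES/hypoxanthine/5% Albumax; compound dose response, 72 h, 37°C, 5% CO2, 5% O2, 90% N2. Freeze-thaw, then LDH assay, A650. % inhibition vs chloroquine (50 μM)/DMSO, mean of 3 independent runs.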

[2] = test system: HepG2 cells; test: HepG2 cytotoxicity assay; settings: for Unified cytotox: HepG2 values of the three screens unified; for IC50: read-out: HepG2 cytotoxicity assay IC50, dose response confirmation
In short: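 HepG2 cells, 2,500 per well in MEM with 10% FBS and 1% NEAA, exposed to compounds for 48 h at 37°C, 5% CO2. Viability read by fluorescence; percent inhibition relative to 50 μM doxorubicin and DMSO controls.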

[3] = test system: P. berghei ookinete development; settings: for Is compound selective in assay? Pb ODA active?: 1: YES, 0: NO; for % inhibition, Replicate A / % inhibition, Replicate B: primary screen at 1 μM
[4] = test system: P. falciparum female gametocytes; parameters: method as in Miguel-Blanco et al 2017; settings: ref Miguel-Blanco et al 2017, read-out: Pf FGAA IC50, cited from earlier work
[5] = test system: HepG2 cells; settings: ref Miguel-Blanco et al 2017, cited from earlier work
[6] = test system: P. falciparum female gametocytes; test: P. falciparum female gametogenesis assay (Pf FGAA); settings: 1: YES, 0: NO
[7] = read-out: Pb ODA IC50, this manuscript
[8] = read-out: Pb Ookinete development assay IC50, dose response confirmation
[9] = HepG2 value reported with Pf FGAA screen

SMILES | IC50 [1] | HepG2 cytoxicity (Pb ODA, this manuscript) [2] | Unified cytotox [2] | IC50 [2] | Is compound selective in assay? Pb ODA active? [3] | % inhibition, Replicate A [3] | % inhibition, Replicate B [3] | IC50 [3, 7] | IC50 [3, 8] | IC50 [4] | HepG2 cytoxicity (Pf FGAA screen) ([5]; HepG2) | Is compound selective in assay? Pf FGAA active? [6] | IC50 ([4]; TCAMS library screen) | HepG2 cytoxicity (Pf FGAA screen) [5, 9] | HepG2 cytoxicity ([5]; HepG2 value reported with the Pf FGAA screen) | Is compound selective in assay? Pf FGAA active? ([6]; >10-fold selectivity over cytotox)
Cc1ccnc(NC(c2cccc(Cl)c2Cl)c2ccc3cccnc3c2O)c1 (stereo not shown) [TCMDC-123997] | 1990 nM | 2.88 µM | 24.29 µM | 2880 nM | 0 (0: NO) | 48.46% | 53.18% | 3500 nM | 3500 nM | 1910 nM | 45.69 µM | 1 (1: YES) |  |  |  | 
Cc1ccc(-n2c(Sc3ncnc4sccc34)nnc2N2CCCC2)cc1 [TCMDC-125247] | 275 nM | 74.13 µM | 81.63 µM | 74100 nM | 1 (1: YES) | 123.83% | 128.92% | 220 nM | 222 nM | 490 nM | 89.13 µM | 1 (1: YES) |  |  |  | 
O=C(Nc1nc(-c2ccccn2)cs1)c1ccc(S(=O)(=O)N2CCc3ccccc32)cc1 [TCMDC-125432] | 3850 nM | 4.22 µM | 16.72 µM | 4220 nM | 0 (0: NO) | 17.85% | 54.79% | 2400 nM | 2400 nM | 1070 nM | 29.22 µM | 1 (1: YES) |  |  |  | 
Oc1c(C(Nc2nc3ccccc3s2)c2ccccc2)ccc2cccnc12 (stereo not shown) [TCMDC-125565] | 2390 nM | 2.34 µM | 2.34 µM | 2340 nM | 0 (0: NO) | 27.85% | 50.32% | 4000 nM | 4000 nM | 3030 nM |  | 0 (0: NO) |  |  |  | 
CCCC(N)C(=O)NC1CCN(c2c(F)c(N)c3c(=O)c(C(=O)O)cn4c3c2Oc2ccccc2-4)C1.Cl (stereo not shown) [TCMDC-125701] | 56 nM | 3.63 µM | 2.62 µM | 3630 nM | 0 (0: NO) | 70.26% | 78.60% |  | 900 nM | 1140 nM | 1.61 µM | 0 (0: NO) |  |  |  | 
COc1ccc2nc3cc(Cl)ccc3c(N)c2c1.Cl [TCMDC-125835] | 29 nM | 6.17 µM | 3.87 µM | 6170 nM | 0 (0: NO) | 74.62% | 77.49% | 6320 nM | 6320 nM | 670 nM | 1.57 µM | 0 (0: NO) |  |  |  | 
Cc1cc(Nc2ncc(C#N)c(Nc3ccccc3C(N)=O)n2)ccc1N1CCN(C)CC1.Cl [TCMDC-134115] | 7 nM | 3.98 µM | 2.19 µM | 3980 nM | 1 (1: YES) | 100.09% | 101.70% | 21.4 nM | 21 nM | 1670 nM | 0.40 µM | 0 (0: NO) |  |  |  | 
Cc1cccc(Nc2nc(N[C@@H]3CCCNC3)nc3cc[nH]c(=O)c23)c1.O=C(O)C(F)(F)F [TCMDC-134835] | 255 nM | 4.57 µM | 3.91 µM | 4570 nM | 0 (0: NO) | 88.28% | 77.31% | 890 nM | 889 nM | 1850 nM | 3.25 µM | 0 (0: NO) |  |  |  | 
CCCCOc1c(CNCCCCCCNCc2ccc3ccccc3c2OCCCC)ccc2ccccc12.CS(=O)(=O)O [TCMDC-137975] |  |  |  |  |  |  |  |  |  |  |  | 0 (0: NO) | 1490 nM | 2.21 µM |  | 
COc1ccccc1-c1nc2c(ccc3nc(N)nc(N)c32)[nH]1 [TCMDC-137976] |  |  |  |  |  |  |  |  |  |  |  | 0 (0: NO) | 1130 nM | 2.87 µM |  | 
CCCN(CCC)CCCN(CCCN(CCC)CCC)c1cc(C)nc(Nc2ccc3cc(Br)ccc3c2)n1.Cl [TCMDC-138006] |  |  |  |  |  |  |  |  |  |  |  | 0 (0: NO) | 990 nM | 3.43 µM |  | 
Cl.Clc1ccc(CNCCCCCCCNCc2ccc(Cl)c(Cl)c2)cc1Cl [TCMDC-138075] |  |  |  |  |  |  |  |  |  |  |  | 0 (0: NO) | 700 nM | 4.57 µM |  | 
COc1cc2nc(N3CCC(CNC(=O)c4ccc(-c5ccc(-c6noc(C)n6)cc5C)cc4)CC3)nc(N)c2cc1OC [TCMDC-138155] |  |  |  |  |  |  |  |  |  |  |  | 0 (0: NO) | 1680 nM | 7.62 µM |  | 
COc1ccc(N2CCN(CCCCNCc3ccc(NC(=O)c4cc(Cl)cc(Cl)c4)cc3)CC2)c(OC)c1 [TCMDC-138226] |  |  |  |  |  |  |  |  |  |  |  | 0 (0: NO) | 3110 nM | 4.42 µM |  | 
COc1cc2nc(Nc3ccc4c(ccn4Cc4ccccc4)c3)nc(Nc3ccc4c(ccn4Cc4ccccc4)c3)c2cc1OC [TCMDC-138237] |  |  |  |  |  |  |  |  |  |  |  | 0 (0: NO) | 1580 nM | 14.13 µM |  | 
CN(C)CCNCc1ccc(-c2ccc3c(Nc4ccc(Cl)cc4F)ccnc3c2)o1 [TCMDC-138391] |  |  |  |  |  |  |  |  |  |  |  | 0 (0: NO) | 1710 nM | 0.89 µM |  | 
Fc1cc(Cl)ccc1Nc1ccnc2cc(-c3ccc(CN4CCOCC4)o3)ccc12 [TCMDC-138393] |  |  |  |  |  |  |  |  |  |  |  | 0 (0: NO) | 640 nM | 5.62 µM |  | 
Cl.Fc1cc(Cl)ccc1Nc1ccnc2cc(-c3ccc(CN4CCNCC4)o3)ccc12 [TCMDC-138394] |  |  |  |  |  |  |  |  |  |  |  | 0 (0: NO) | 1910 nM | 12.05 µM |  | 
CN(C)CCN(C)Cc1ccc(-c2ccc3c(Nc4ccc(Oc5ccccn5)cc4)ccnc3c2)o1 [TCMDC-138426] |  |  |  |  |  |  |  |  |  |  |  | 0 (0: NO) | 2050 nM | 5.37 µM |  | 
CN(/N=C/C=C/c1ccc(Cl)cc1)c1nc(NCCc2ccc(O)cc2)nc(N2CCNCC2)n1 [TCMDC-138546] |  |  |  |  |  |  |  |  |  |  |  | 0 (0: NO) | 1960 nM | 13.18 µM |  | 
O=c1c(NCCCN(Cc2ccc(F)cc2)c2ccccn2)c(NCc2cccnc2)c1=O [TCMDC-142311] |  |  |  |  |  |  |  |  |  | 360 nM |  |  |  |  | >100 µM | 1 (1: YES)
